From the C3SDB collision cross section collection
Several values for one entry are separate records, joined by “and”; a condition that tells them apart may be missing. Equal values may be shown once.

Conditions: [M+H]+; instrument: TW; Major Mix IMS/Tof Calibration Kit (Waters)

| Compound | collision cross section (N2) [Å²] |
| --- | --- |
| Cc1nnc2n1-c1ccc(Cl)cc1C(c1ccccc1Cl)=NC2 [Triazolam] | 172.4 |
| CC(C)(C)NCC(O)c1ccccc1Cl (centres undefined) [Tulobuterol] | 150.5 |
| CCCc1nc(C)c2c(=O)nc(-c3cc(S(=O)(=O)N4CCN(CC)CC4)ccc3OCC)[nH]n12 [Vardenafil] | 225.8 |
| COc1ccc(C(CN(C)C)C2(O)CCCCC2)cc1 (centres undefined) [Venlafaxine] | 171.6 |
| COc1ccc(CCN(C)CCCC(C#N)(c2ccc(OC)c(OC)c2)C(C)C)cc1OC (centres undefined) [Verapamil] | 210.2 |
| CC(=O)CC(c1ccccc1)c1c(O)c2ccccc2oc1=O (centres undefined) [Warfarin] | 166.8 |
| CCN(C(C)=O)c1cccc(-c2ccnc3c(C#N)cnn23)c1 [Zaleplon] | 173.5 |
| Cc1nn(C)c2c1C(c1ccccc1F)=NCC(=O)N2C [Zolazepam] | 162.3 |
| CN(C)CCc1c[nH]c2ccc(C[C@H]3COC(=O)N3)cc12 [Zolmitriptan] | 160.6 |
| Cc1ccc(-c2nc3ccc(C(=O)O)cn3c2CC(=O)N(C)C)cc1 [Zolpidem-M 2] | 181.4 |
| Cc1ccc(-c2nc3ccc(C)cn3c2CC(=O)N(C)C)cc1 [Zolpidem] | 177.2 |
| OCCN1CCN(CC/C=C2/c3ccccc3Sc3ccc(Cl)cc32)CC1 [Zuclopenthixol] | 194 |
| Clc1cccc(N2CCNCC2)c1 [mCPP] | 144.3 |

Conditions: [M+H-H2O]+; instrument: DT; stepped-field

| collision cross section (N2) [Å²] | Compound |
| --- | --- |
| 383.4 | OCC1OC(OC2C(CO)OC(OC3C(CO)OC(OC4C(CO)OC(OC5C(CO)OC(OC6C(CO)OC(OC7C(CO)OC(OC8C(CO)OC(OC9C(CO)OC(OC%10C(CO)OC(O)C(O)C%10O)C(O)C9O)C(O)C8O)C(O)C7O)C(O)C6O)C(O)C5O)C(O)C4O)C(O)C3O)C(O)C2O)C(O)C(O)C1O (centres undefined) [(Hex)10] |

Same assay, conditions: [M+H]+; instrument: DT; stepped-field

| collision cross section (N2) | Compound |
| --- | --- |
| 365.1 Å² and 390.3 Å² | OCC1OC(OC2C(CO)OC(OC3C(CO)OC(OC4C(CO)OC(OC5C(CO)OC(OC6C(CO)OC(OC7C(CO)OC(OC8C(CO)OC(OC9C(CO)OC(OC%10C(CO)OC(O)C(O)C%10O)C(O)C9O)C(O)C8O)C(O)C7O)C(O)C6O)C(O)C5O)C(O)C4O)C(O)C3O)C(O)C2O)C(O)C(O)C1O (centres undefined) [(Hex)10] |
| 291.8 Å² and 277.8 Å² | CC(C)C[C@H](NC(=O)[C@H](C)NC(=O)[C@H](CC(=O)O)NC(=O)[C@H](C)NC(=O)[C@H](C)N)C(=O)N[C@@H](CC(C)C)C(=O)N[C@@H](CC(C)C)C(=O)N[C@@H](CCCCN)C(=O)O [AADALLLK] |
| 248.1 Å² | CCC(C)[C@H](NC(=O)[C@H](CC(N)=O)NC(=O)[C@H](C)N)C(=O)N[C@@H](CC(=O)O)C(=O)N[C@H](C(=O)N[C@@H](CCCCN)C(=O)O)C(C)C (some centres undefined) [ANIDVK] |
| 305.9 Å² | CC(C)C[C@H](NC(=O)[C@H](C)NC(=O)[C@@H](N)CCC(=O)O)C(=O)N[C@@H](CC(=O)O)C(=O)N[C@@H](Cc1ccccc1)C(=O)N[C@@H](Cc1ccccc1)C(=O)N[C@@H](C)C(=O)N[C@@H](CCCNC(=N)N)C(=O)O [EALDFFAR] |
| 254.1 Å² | CC(C)C[C@H](NC(=O)[C@H](CCC(=O)O)NC(=O)[C@@H](N)CCC(=O)O)C(=O)N[C@@H](Cc1ccccc1)C(=O)N[C@@H](CCCNC(=N)N)C(=O)O [EELFR] |
| 205.9 Å² | NCC(=O)N[C@@H](CCCN=C(N)N)C(=O)NCC(=O)N[C@@H](CC(=O)O)C(=O)N[C@@H](CO)C(=O)O [GRGDS] |
| 214.8 Å² | CC(C)[C@H](NC(=O)CN)C(=O)N[C@@H](Cc1ccccc1)C(=O)N[C@@H](CCCNC(=N)N)C(=O)O [GVFR] |
| 273.3 Å² | CC(C)C[C@H](NC(=O)[C@H](CC(=O)O)NC(=O)[C@H](C)NC(=O)[C@H](CC(C)C)NC(=O)[C@@H](N)Cc1c[nH]cn1)C(=O)N[C@@H](CO)C(=O)N[C@@H](CCCCN)C(=O)O [HLADLSK] |
| 285.9 Å² | CCC(C)[C@H](N)C(=O)NCC(=O)N[C@@H](CC(=O)O)C(=O)N[C@@H](Cc1ccc(O)cc1)C(=O)N[C@@H](C)C(=O)NCC(=O)N[C@H](C(=O)N[C@@H](CCCCN)C(=O)O)C(C)CC (some centres undefined) [IGDYAGIK] |
| 275.6 Å² | CC(C)C[C@H](NC(=O)[C@H](CC(C)C)NC(=O)[C@H](CCC(N)=O)NC(=O)[C@H](CC(N)=O)NC(=O)[C@@H](N)CC(C)C)C(=O)N[C@@H](CCCNC(=N)N)C(=O)O [LNQLLR] |
| 291.7 Å² | CCC(C)[C@H](NC(=O)[C@H](CC(N)=O)NC(=O)[C@H](CCC(=O)O)NC(=O)[C@H](C)NC(=O)[C@H](CC(C)C)NC(=O)[C@@H](N)CC(N)=O)C(=O)N[C@@H](CO)C(=O)N[C@@H](CCCNC(=N)N)C(=O)O (some centres undefined) [NLAENISR] |

Same assay, conditions: [M+K]+; instrument: DT; stepped-field

| collision cross section (N2) [Å²] | Compound |
| --- | --- |
| 210.4 | NCC(=O)N[C@@H](CCCN=C(N)N)C(=O)NCC(=O)N[C@@H](CC(=O)O)C(=O)N[C@@H](CO)C(=O)O [GRGDS] |
| 248.2 | CC(=O)NC1C(OC2C(O)C(CO)OC(OC3C(CO)OC(O)C(O)C3O)C2O)OC(CO)C(O)C1OC1OC(CO)C(O)C(O)C1O (centres undefined) [HexNAc-(Hex)3] |
| 305.8 | CC(=O)N[C@H]1[C@H](OC2[C@@H](O)[C@H](O[C@@H]([C@H](O[C@@H]3O[C@@H](C)[C@@H](O)[C@@H](O)[C@@H]3O)[C@@H](O)C=O)[C@H](O)CO)O[C@H](CO)[C@@H]2O)O[C@H](CO)[C@@H](O[C@@H]2O[C@@H](C)[C@@H](O)[C@@H](O)[C@@H]2O)[C@@H]1O[C@@H]1O[C@H](CO)[C@H](O)[C@H](O)[C@H]1O (some centres undefined) [Lacto-N-Difucohexaose II] |
| 293.3 | OC[C@H]1O[C@H](O[C@H]2[C@H](O)[C@@H](O)[C@@H](O[C@H]3[C@H](O)[C@@H](O)[C@@H](O[C@H]4[C@H](O)[C@@H](O)[C@@H](O[C@H]5[C@H](O)[C@@H](O)[C@@H](O[C@H]6[C@H](O)[C@@H](O)[C@@H](O)O[C@@H]6CO)O[C@@H]5CO)O[C@@H]4CO)O[C@@H]3CO)O[C@@H]2CO)[C@H](O)[C@@H](O)[C@@H]1O [Maltohexaose] |
| 288.9 | CCCCC/C=C\C/C=C\C/C=C\CCCCC(=O)O[C@H](COC(=O)CCCCCCCCCCCCC)COP(=O)([O-])OCC[N+](C)(C)C [PC(32:3)] |
| 287.5 | CCCCC/C=C\C/C=C\C/C=C\CCCCC(=O)O[C@H](COC(=O)CCCCCCC/C=C\CCCCC)COP(=O)([O-])OCC[N+](C)(C)C [PC(33:4)] |
| 289 | CC\C=C/C=C/C=C/C=C\CCCCCCCC(=O)O[C@H](COC(=O)CCCCCCCCCCCCCCC)COP(=O)([O-])OCC[N+](C)(C)C [PC(34:4)] |
| 294.5 | CC/C=C\C/C=C\C/C=C\C/C=C\CCCCC(=O)OC[C@H](COP(=O)([O-])OCC[N+](C)(C)C)OC(=O)CCCCCCCCCCCCCCCC [PC(35:4)] |
| 293.8 | CCCC/C=C\C/C=C\CCCCCCCC(=O)OC[C@H](COP(=O)([O-])OCC[N+](C)(C)C)OC(=O)CCCC/C=C\C/C=C\C/C=C\CCCCC [PC(35:5)] |
| 299 | CCCCC/C=C\C/C=C\C/C=C\C/C=C\CCCCCC(=O)O[C@H](COC(=O)CCCCCCC/C=C\CCCCC)COP(=O)([O-])OCC[N+](C)(C)C [PC(37:5)] |
| 296.6 | CC/C=C\C/C=C\C/C=C\C/C=C\C/C=C\C/C=C\CCC(=O)O[C@H](COC(=O)CCCCCCC/C=C\CCCCC)COP(=O)([O-])OCC[N+](C)(C)C [PC(37:7)] |
| 304.7 | CC/C=C\C/C=C\C/C=C\C/C=C\C/C=C\CCCCCC(=O)O[C@H](COC(=O)CCCCCCCCCCCCCCCC)COP(=O)([O-])OCC[N+](C)(C)C [PC(39:5)] |

Same assay, conditions: [M+Na-H2O]+; instrument: DT; stepped-field

| collision cross section (N2) | Compound |
| --- | --- |
| 244.9 Å² | CC(=O)NC1C(OC2C(O)C(CO)OC(OC3C(CO)OC(O)C(O)C3O)C2O)OC(CO)C(O)C1OC1OC(CO)C(O)C(O)C1O (centres undefined) [HexNAc-(Hex)3] |
| 262 Å² and 263.1 Å² | CC(=O)NC1C(OC2C(O)C(CO)OC(OC(C(O)CO)C(OC3OC(C)C(O)C(O)C3O)C(O)C=O)C2O)OC(CO)C(O)C1OC1OC(CO)C(O)C(O)C1O (centres undefined) [HexNAc-Fuc-(Hex)3] |

Same assay, conditions: [M+Na]+; instrument: DT; stepped-field

| collision cross section (N2) | Compound |
| --- | --- |
| 365.1 Å² and 373.8 Å² | OCC1OC(OC2C(CO)OC(OC3C(CO)OC(OC4C(CO)OC(OC5C(CO)OC(OC6C(CO)OC(OC7C(CO)OC(OC8C(CO)OC(OC9C(CO)OC(OC%10C(CO)OC(O)C(O)C%10O)C(O)C9O)C(O)C8O)C(O)C7O)C(O)C6O)C(O)C5O)C(O)C4O)C(O)C3O)C(O)C2O)C(O)C(O)C1O (centres undefined) [(Hex)10] |
| 208.2 Å² | NCC(=O)N[C@@H](CCCN=C(N)N)C(=O)NCC(=O)N[C@@H](CC(=O)O)C(=O)N[C@@H](CO)C(=O)O [GRGDS] |
| 281.7 Å² | CCCCCCCCCCCCCCCC(=O)N[C@@H](CO[C@@H]1O[C@H](CO)[C@@H](O)C(O)C1O)[C@H](O)CCCCCCCCCCCCCCC (some centres undefined) [GlcCer(34:0)] |
| 286.8 Å² | CCCCCCCCCCCCC=CC[C@@H](O)[C@H](CO[C@@H]1O[C@H](CO)[C@@H](O)C(O)C1O)NC(=O)CCCCCCCCCCCCCCCCCC (some centres undefined) [GlcCer(37:1)] |
| 295.6 Å² | CCCCCCCCCCCCCCCCCCCC(=O)N[C@@H](CO[C@@H]1O[C@H](CO)[C@@H](O)C(O)C1O)[C@H](O)CCCCCCCCCCCCCCC (some centres undefined) [GlcCer(38:0)] |
| 293.8 Å² | CCCCCCCCCCCCC=CC[C@@H](O)[C@H](CO[C@@H]1O[C@H](CO)[C@@H](O)C(O)C1O)NC(=O)CCCCCCCCCCCCCCCCCCC (some centres undefined) [GlcCer(38:1)] |
| 297.1 Å² | CCCCCCCCCCCCC=CC[C@@H](O)[C@H](CO[C@@H]1O[C@H](CO)[C@@H](O)C(O)C1O)NC(=O)CC=CCCCCCCCCCCCCCCCCCC (some centres undefined) [GlcCer(40:2)] |
| 307.8 Å² | CCCCCCCCCCCCC=CC[C@@H](O)[C@H](CO[C@@H]1O[C@H](CO)[C@@H](O)C(O)C1O)NC(=O)CC=CCCCCCCCCCCCCCCCCCCCCC (some centres undefined) [GlcCer(43:2)] |
| 315.3 Å² | CCCCCCCCCCCCC=CC[C@@H](O)[C@H](CO[C@@H]1O[C@H](CO)[C@@H](O)C(O)C1O)NC(=O)CC=CCCCCCCCCCCCCCCCCCCCCCC (some centres undefined) [GlcCer(44:2)] |
| 310.7 Å² | CCCCCCCCCCCCC=CC[C@@H](O)[C@H](CO[C@@H]1O[C@H](CO)[C@@H](O)C(O)C1O)NC(=O)CC=CCC=CCCCCCCCCCCCCCCCCCCC (some centres undefined) [GlcCer(44:3)] |
| 244 Å² | CC(=O)NC1C(OC2C(O)C(CO)OC(OC3C(CO)OC(O)C(O)C3O)C2O)OC(CO)C(O)C1OC1OC(CO)C(O)C(O)C1O (centres undefined) [HexNAc-(Hex)3] |
| 291.2 Å² and 306.3 Å² | CC(=O)N[C@H]1[C@H](OC2[C@@H](O)[C@H](O[C@@H]([C@H](O[C@@H]3O[C@@H](C)[C@@H](O)[C@@H](O)[C@@H]3O)[C@@H](O)C=O)[C@H](O)CO)O[C@H](CO)[C@@H]2O)O[C@H](CO)[C@@H](O[C@@H]2O[C@@H](C)[C@@H](O)[C@@H](O)[C@@H]2O)[C@@H]1O[C@@H]1O[C@H](CO)[C@H](O)[C@H](O)[C@H]1O (some centres undefined) [Lacto-N-Difucohexaose II] |
| 286.4 Å² | OC[C@H]1O[C@H](O[C@H]2[C@H](O)[C@@H](O)[C@@H](O[C@H]3[C@H](O)[C@@H](O)[C@@H](O[C@H]4[C@H](O)[C@@H](O)[C@@H](O[C@H]5[C@H](O)[C@@H](O)[C@@H](O[C@H]6[C@H](O)[C@@H](O)[C@@H](O)O[C@@H]6CO)O[C@@H]5CO)O[C@@H]4CO)O[C@@H]3CO)O[C@@H]2CO)[C@H](O)[C@@H](O)[C@@H]1O [Maltohexaose] |
| 299.9 Å² | CC/C=C\C/C=C\C/C=C\C/C=C\C/C=C\CCCC(=O)O[C@H](COC(=O)CCCC/C=C\C/C=C\C/C=C\CCCCC)COP(=O)([O-])OCC[N+](C)(C)C [PC(38:8)] |
| 295.9 Å² | CCCC=CCC=CCC=CCC=CCC=CCC(=O)OC[C@H](COP(=O)(O)OCC[N+](C)(C)C)OC(=O)CC=CCC=CCC=CCC=CCC=CCCC [PC(38:10)] |
